What all share (type): physicochemical
Series [1] is described as follows: solid state stability (light, elevated temperature, high humidity challenges). Conditions: elevated temperatures. An excerpt: (§1) Although in general the acid addition salts of 5,8,14-triazatetracyclo[10.3.1.0^2,11.0^4,9]-hexadeca-2(11),3,5,7,9-pentaene are all crystalline, the majority of those salts are so hygroscopic as to render them poor candidates for pharmaceutical formulation use.

Series [2] is described as follows: aqueous solubility. The procedure:
as §1
(§2) The aqueous solubility of the anhydrous succinate salt has been measured under various conditions: >10 mg/mL in pH 4 buffer; >10 mg/mL in pH 10 buffer; >10 mg/mL in 0.1 N HCl; and >10 mg/mL in 0.1 N NaOH. The solubility of the anhydrous succinate salt has also been measured in various solvents: >10 mg/mL in methanol; 0.1 mg/mL in acetonitrile and <0.01 mg/mL in hexane. The hygroscopicity of the anhydrous succinate salt has also been measured under various conditions: 0.0% moisture gain at 20% Relative Humidity; 0.3% moisture gain at 40% Relative Humidity; 0.6% moisture gain at 60% Relative Humidity; 0.9% moisture gain at 80% Relative Humidity and 1.3% moisture gain at 95% Relative Humidity.

Series [3] is described as follows: native pH in aqueous solution.
Series [4] is described as follows: hygroscopicity (moisture gain on exposure to relative humidity in a moisture chamber). On the procedure:
as §1, §2

A short description of series [5]: solubility in various solvents. Conditions: organic solvent or mixture. On the procedure: as §2

Structures can show the parent of a compound that is named as a salt.

Broadly, the solubility is how much of the substance goes into solution per volume. As for `c1cnc2cc3c(cc2n1)C1CNCC3C1` [anhydrous succinate salt, Anhydrous Succinate Salt of 5,8,14-Triazatetracyclo[10.3.1.0^2,11.0^4,9]-hexadeca-2(11),3,5,7,9-pentaene], the solid state stability result in series [1] is reported as “excellent solid state stability”. Further, the solubility is greater than 10000 µg/mL in series [2] (aqueous buffer, in 0.1 N NaOH); greater than 10000 µg/mL in series [2] (aqueous buffer, in pH 4 buffer); greater than 10000 µg/mL in series [2] (aqueous buffer, in pH 10 buffer); greater than 10000 µg/mL in series [2] (simulated gastric fluid, in 0.1 N HCl); 442000 µg/mL in series [2] (water); 100 µg/mL in series [5] (in acetonitrile). Further, the solubility in series [5] (in hexane) was less than 10 µg/mL; in series [5] (in methanol) it was greater than 10000 µg/mL. In addition, in series [3], the “native pH in aqueous solution” value worked out at 4.7. Moreover, the “hygroscopicity, moisture gain” value in series [4] (at 20% Relative Humidity) stood at 0.0%; in series [4] (at 40% Relative Humidity), 0.3%; in series [4] (at 60% Relative Humidity) it was 0.6%; in series [4] (at 80% Relative Humidity), 0.9%; in series [4] (at 95% Relative Humidity) it was 1.3%. Besides, the hygroscopicity result is on record as “approximately 1.97%” in series [4] (at 90% relative humidity) and “approximately 1.97 % wt/wt” in series [4] (exposure to 90% relative humidity in a moisture chamber).

Values taken from patent US6794388B2, “Succinic acid salts of 5,7,14-triazatetracyclo[10.3.1.02,11.04,9] -hexadeca-1(11),3,5,7,9-pentaene and pharmaceutical compositions thereof” (Pfizer Inc., priority 2001, dated 2004).
